How the values were obtained:
calcium level in serum = assay: Prevention of hypercalcemia in rats administered with 1-α-(OH)-D3 (Example 4); format: in vivo, male Wistar rats; conditions: 1-α-(OH)-D3 10 µg/kg i.p. alone
Description: In the present example, it is shown that 24R,25-(OH)2 -D3 has a function of preventing the occurrence of hypercalcemia on rats administered with 1-α-hydroxycholecalciferol (hereinafter referred to as 1-α-(OH)-D3).
Six subgroups of male Wistar rats of 130±30 g of body weight were subjected to the test while dividing the rats into 3 groups, each group consisting of 2 subgroups and each subgroup consisting of 5 animals. To the rats of the first group, after fasting for a night, an ethanolic solution of 1-α-(OH)-D3 was intraperitoneally administered at a dose rate of 10 micrograms of 1-α-(OH)-D3 /kg body weight. To the rats of the second group, a solution of 24R,25-(OH)2 -D3 in the triglyceride ester used in Example 1 was orally administered at a dose rate of 100 micrograms/kg body weight simultaneously with the same administration of 1-α-(OH)-D3 as in the rats of the first group.
The third group of the rats was used for control only with the oral administration of the triglyceride ester used in Example 1.

[1] = tested on: ulcer found on the duodenum; assay: Healing of acetic acid induced duodenal ulcer (Example 10); format: in vivo, male rats; conditions: 20 µg/kg/day oral, 10 days
Method: Fourty five male rats of body weight of 240 to 260 g were equally divided into three groups, each consisting of 15 animals, and they were subjected to an operation following the method of Okabe et al. (refer to Amer. J. Dig. Dia., 16, 277, 1971), in which under anesthesia by ether, a circular frame made of a metal was placed on the serosa 5 to 7 mm from the pylorus and 0.06 ml of gracial acetic acid was poured onto the round part within the frame and after 30 sec, the acetic liquid was removed with the frame.
The thus operated rats of the first group were administered orally with a suspension of […] of 24R,25-(OH)2 -D3 in Panacete®810 containing 0.2% by weight of ethanol once a day for continuous 10 days from the third day of the operation at a daily dose rate of 20 micrograms of 24R,25-(OH)2 -D3 /kg. To the thus operated rats of the second group (control), only Panacete®810 was orally administered at a daily dose rate of 2 ml/kg for continuous 10 days.
The thus operated rats of the third group were used in the comparative test. Namely, they were treated in the same manner as those of the first group except for administration of gefarnate (3,7-dimethyl-2,6-octadienyl-5,9,13-trimethyl-4,8,12-tetradecatrienoate) at a daily dose rate of 20 microgram/kg body weight in stead of 24R,25-(OH)2 -D3 in the first group.
After finishing the final administration, all the rats were sacrificed by ether and their duodenum was taken out for autopsy. The length and the width of the ulcer found on the duodenum were measured, and their product with a unit of mm^2 was taken and named as the ulcer coefficient. The rate of healing of the ulcer was calculated by the following formula: [formula] wherein C is the ulcer coefficient of control and U is the ulcer coefficient of the group to which the present compound was administered.

Row | SMILES | Calcium level in serum (calcium level in serum; after 10 hours) | Calcium level in serum (calcium level in serum; after 18 hours) | ulcer coefficient [1] | rate of ulcer healing ([1]; vs control)
1 | C=C1/C(=C\C=C2/CCC[C@]3(C)[C@@H]([C@H](C)CCCC(C)C)CC[C@@H]23)C[C@@H](O)C[C@@H]1O [1-α-(OH)--D3, 1-α-hydroxycholecalciferol, reference compound] | 13.4 ± 0.6 mg/dL | 14.5 ± 0.5 mg/dL |  | 
2 | CC(C)=CCCC(C)=CCCC(C)=CCCC(=O)OCC=C(C)CCC=C(C)C [gefarnate, 3,7-dimethyl-2,6-octadienyl-5,9,13-trimethyl-4,8,12-tetradecatrienoate, reference compound] |  |  | 7.5 mm^2 | 0%
